# Measured values as given in the NIST ThermoML archive (doi:10.1016/j.fluid.2013.06.041).
# Numbers after ± are expanded uncertainties.
# What was measured:
# [1] = xn = mol fraction of the nth substance listed; conditions: 101 kPa, Liquid, Small sample (50 mg) DSC
# [2] = 101.33 kPa, Liquid, Vibrating tube method
# [3] = molar heat capacity at constant pressure; conditions: 101.33 kPa, Liquid, Small sample (50 mg) DSC
structure (smiles),measurement,setting,value
"CCCCC(O)CO (configuration not stated) [1,2-hexanediol] + O",excess molar heat capacity,"[1]; 283.15 K, x1 = 0.9437",0.04 J/K/mol
same,excess molar heat capacity,"[1]; 293.15 K, x1 = 0.04991",0.35 ± 0.43 J/K/mol
same,excess molar heat capacity,"[1]; 293.15 K, x1 = 0.1989",0.68 ± 0.43 J/K/mol
same,excess molar heat capacity,"[1]; 293.15 K, x1 = 0.2988",1.31 ± 0.43 J/K/mol
same,excess molar heat capacity,"[1]; 293.15 K, x1 = 0.4015",0.89 ± 0.43 J/K/mol
same,excess molar heat capacity,"[1]; 293.15 K, x1 = 0.4841",1.13 ± 0.43 J/K/mol
same,excess molar heat capacity,"[1]; 293.15 K, x1 = 0.5535",1.45 ± 0.43 J/K/mol
same,excess molar heat capacity,"[1]; 293.15 K, x1 = 0.6972",0.9 ± 0.43 J/K/mol
same,excess molar heat capacity,"[1]; 293.15 K, x1 = 0.7927",0.92 ± 0.43 J/K/mol
same,excess molar heat capacity,"[1]; 293.15 K, x1 = 0.8822",0.82 ± 0.43 J/K/mol
same,excess molar heat capacity,"[1]; 293.15 K, x1 = 0.9437",0.68 ± 0.43 J/K/mol
same,excess molar heat capacity,"[1]; 298.15 K, x1 = 0.09952",0.87 ± 0.43 J/K/mol
same,excess molar heat capacity,"[1]; 298.15 K, x1 = 0.1989",1.97 ± 0.43 J/K/mol
same,excess molar heat capacity,"[1]; 298.15 K, x1 = 0.2988",2.52 ± 0.44 J/K/mol
same,excess molar heat capacity,"[1]; 298.15 K, x1 = 0.4015",2.19 ± 0.44 J/K/mol
same,excess molar heat capacity,"[1]; 298.15 K, x1 = 0.4841",2.22 ± 0.44 J/K/mol
same,excess molar heat capacity,"[1]; 298.15 K, x1 = 0.5535",2.33 ± 0.44 J/K/mol
same,excess molar heat capacity,"[1]; 298.15 K, x1 = 0.6972",1.63 ± 0.43 J/K/mol
same,excess molar heat capacity,"[1]; 298.15 K, x1 = 0.7927",1.26 ± 0.43 J/K/mol
same,excess molar heat capacity,"[1]; 298.15 K, x1 = 0.8822",0.94 ± 0.43 J/K/mol
same,excess molar heat capacity,"[1]; 298.15 K, x1 = 0.9437",0.47 ± 0.43 J/K/mol
same,excess molar heat capacity,"[1]; 303.15 K, x1 = 0.04991",1.74 ± 0.43 J/K/mol
same,excess molar heat capacity,"[1]; 303.15 K, x1 = 0.09952",1.95 ± 0.43 J/K/mol
same,excess molar heat capacity,"[1]; 303.15 K, x1 = 0.1989",3.16 ± 0.44 J/K/mol
same,excess molar heat capacity,"[1]; 303.15 K, x1 = 0.2988",3.76 ± 0.44 J/K/mol
same,excess molar heat capacity,"[1]; 303.15 K, x1 = 0.4015",3.35 ± 0.44 J/K/mol
same,excess molar heat capacity,"[1]; 303.15 K, x1 = 0.4841",3.15 ± 0.44 J/K/mol
same,excess molar heat capacity,"[1]; 303.15 K, x1 = 0.5535",3.16 ± 0.44 J/K/mol
same,excess molar heat capacity,"[1]; 303.15 K, x1 = 0.6972",2.27 ± 0.44 J/K/mol
same,excess molar heat capacity,"[1]; 303.15 K, x1 = 0.7927",1.52 ± 0.43 J/K/mol
same,excess molar heat capacity,"[1]; 303.15 K, x1 = 0.8822",0.89 ± 0.43 J/K/mol
same,excess molar heat capacity,"[1]; 303.15 K, x1 = 0.9437",0.22 ± 0.43 J/K/mol
same,excess molar heat capacity,"[1]; 313.15 K, x1 = 0.04991",2.85 ± 0.44 J/K/mol
same,excess molar heat capacity,"[1]; 313.15 K, x1 = 0.09952",3.92 ± 0.45 J/K/mol
same,excess molar heat capacity,"[1]; 313.15 K, x1 = 0.1989",5.28 ± 0.45 J/K/mol
same,excess molar heat capacity,"[1]; 313.15 K, x1 = 0.2988",5.95 ± 0.46 J/K/mol
same,excess molar heat capacity,"[1]; 313.15 K, x1 = 0.4015",5.35 ± 0.46 J/K/mol
same,excess molar heat capacity,"[1]; 313.15 K, x1 = 0.4841",4.97 ± 0.45 J/K/mol
same,excess molar heat capacity,"[1]; 313.15 K, x1 = 0.6972",3.48 ± 0.44 J/K/mol
same,excess molar heat capacity,"[1]; 313.15 K, x1 = 0.7927",2.27 ± 0.44 J/K/mol
same,excess molar heat capacity,"[1]; 313.15 K, x1 = 0.8822",1.65 ± 0.43 J/K/mol
same,excess molar heat capacity,"[1]; 313.15 K, x1 = 0.9437",0.62 ± 0.43 J/K/mol
"CCCCC(O)CO (configuration not stated) [1,2-hexanediol]",mass density,[2]; 283.15 K,958.85 ± 0.79 kg/m3
same,mass density,[2]; 293.15 K,951.73 ± 0.78 kg/m3
same,mass density,[2]; 298.15 K,948.1 ± 0.78 kg/m3
same,mass density,[2]; 303.15 K,944.44 ± 0.77 kg/m3
same,mass density,[2]; 313.15 K,937.06 ± 0.76 kg/m3
same,molar heat capacity at constant pressure,[3]; 283.15 K,277.11 ± 12 J/K/mol
same,molar heat capacity at constant pressure,[3]; 293.15 K,287.76 ± 12 J/K/mol
same,molar heat capacity at constant pressure,[3]; 298.15 K,293.1 ± 12 J/K/mol
same,molar heat capacity at constant pressure,[3]; 303.15 K,298.44 ± 13 J/K/mol
same,molar heat capacity at constant pressure,[3]; 313.15 K,309.15 ± 13 J/K/mol
"CC(O)CO (configuration not stated) [1,2-propanediol]",mass density,[2]; 283.15 K,1043.89 ± 0.22 kg/m3
same,mass density,[2]; 293.15 K,1036.58 ± 0.22 kg/m3
same,mass density,[2]; 298.15 K,1032.86 ± 0.22 kg/m3
same,mass density,[2]; 303.15 K,1029.1 ± 0.22 kg/m3
same,mass density,[2]; 313.15 K,1021.48 ± 0.22 kg/m3
same,molar heat capacity at constant pressure,[3]; 283.15 K,183.26 ± 7.8 J/K/mol
same,molar heat capacity at constant pressure,[3]; 293.15 K,188.62 ± 8 J/K/mol
same,molar heat capacity at constant pressure,[3]; 298.15 K,191.29 ± 8.1 J/K/mol
same,molar heat capacity at constant pressure,[3]; 303.15 K,193.95 ± 8.2 J/K/mol
same,molar heat capacity at constant pressure,[3]; 313.15 K,199.25 ± 8.5 J/K/mol
"OCCCO [propan-1,3-diol]",mass density,[2]; 283.15 K,1059.14 ± 0.96 kg/m3
same,mass density,[2]; 293.15 K,1052.85 ± 0.95 kg/m3
same,mass density,[2]; 298.15 K,1049.68 ± 0.94 kg/m3
same,mass density,[2]; 303.15 K,1046.51 ± 0.93 kg/m3
same,mass density,[2]; 313.15 K,1040.12 ± 0.92 kg/m3
same,molar heat capacity at constant pressure,[3]; 283.15 K,169.44 ± 7.2 J/K/mol
same,molar heat capacity at constant pressure,[3]; 293.15 K,174.37 ± 7.4 J/K/mol
same,molar heat capacity at constant pressure,[3]; 298.15 K,176.91 ± 7.5 J/K/mol
same,molar heat capacity at constant pressure,[3]; 303.15 K,179.52 ± 7.6 J/K/mol
same,molar heat capacity at constant pressure,[3]; 313.15 K,185.09 ± 7.9 J/K/mol
"OCCCCO [1,4-butanediol]",mass density,[2]; 283.15 K,1022.21 ± 0.3 kg/m3
same,mass density,[2]; 293.15 K,1016.11 ± 0.3 kg/m3
same,mass density,[2]; 298.15 K,1013.06 ± 0.3 kg/m3
same,mass density,[2]; 303.15 K,1009.99 ± 0.29 kg/m3
same,mass density,[2]; 313.15 K,1003.85 ± 0.29 kg/m3
same,molar heat capacity at constant pressure,[3]; 283.15 K,195.51 ± 8.3 J/K/mol
same,molar heat capacity at constant pressure,[3]; 293.15 K,200.85 ± 8.5 J/K/mol
same,molar heat capacity at constant pressure,[3]; 298.15 K,203.73 ± 8.6 J/K/mol
same,molar heat capacity at constant pressure,[3]; 303.15 K,206.71 ± 8.8 J/K/mol
same,molar heat capacity at constant pressure,[3]; 313.15 K,212.96 ± 9 J/K/mol
